Tested on: A875 shp75 cells
Assay: Wound healing cell motility assay, A875 shp75
Assay type: cell-based, human
Description: For wound healing assay, cells were grown until confluency and subjected to a wound across the cell mono-layer. Cells were then incubated with serum-free media either with DMSO or a small molecule (with or without 5 µM Q_VD_poH) and imaged at specific time-points. Cell migration is reflected as fold change in wound area over time.

Cc1cccc(-c2cncc(Nc3ccc(Br)c(Cl)c3Cl)n2)c1C [Np75-4A22]
Wound area (Fold) (A875 shp75, 1uM, 9 h, n2): 0.829 Fold | Wound area (Fold) (A875 shp75, 1uM, 9 h, n3): 0.805 Fold | Wound area (Fold) (A875 shp75, 1uM, 12 h, Mean): 0.763 Fold | Wound area (Fold) (A875 shp75, 1uM, 12 h, n1): 0.742 Fold | Wound area (Fold) (A875 shp75, 1uM, 12 h, n2): 0.785 Fold | Wound area (Fold) (A875 shp75, 1uM, 12 h, n3): 0.763 Fold | Wound area (Fold) (A875 shp75, 1uM, 15 h, Mean): 0.718 Fold | Wound area (Fold) (A875 shp75, 1uM, 15 h, n1): 0.696 Fold | Wound area (Fold) (A875 shp75, 1uM, 15 h, n2): 0.752 Fold | Wound area (Fold) (A875 shp75, 1uM, 15 h, n3): 0.705 Fold | Wound area (Fold) (A875 shp75, 1uM, 18 h, Mean): 0.698 Fold | Wound area (Fold) (A875 shp75, 1uM, 18 h, n1): 0.664 Fold | Wound area (Fold) (A875 shp75, 1uM, 18 h, n2): 0.709 Fold | Wound area (Fold) (A875 shp75, 1uM, 18 h, n3): 0.721 Fold | Wound area (Fold) (A875 shp75, 1uM, 21 h, Mean): 0.669 Fold | Wound area (Fold) (A875 shp75, 1uM, 21 h, n1): 0.640 Fold | Wound area (Fold) (A875 shp75, 1uM, 21 h, n2): 0.695 Fold | Wound area (Fold) (A875 shp75, 1uM, 21 h, n3): 0.673 Fold | Wound area (Fold) (A875 shp75, 1uM, 24 h, Mean): 0.638 Fold | Wound area (Fold) (A875 shp75, 1uM, 24 h, n1): 0.601 Fold | Wound area (Fold) (A875 shp75, 1uM, 24 h, n2): 0.671 Fold | Wound area (Fold) (A875 shp75, 1uM, 24 h, n3): 0.643 Fold | Wound area (Fold) (A875 shp75, 2uM, 0 h, Mean): 1.000 Fold | Wound area (Fold) (A875 shp75, 2uM, 0 h, n1): 0.9754 Fold | Wound area (Fold) (A875 shp75, 2uM, 0 h, n2): 1.0649 Fold | Wound area (Fold) (A875 shp75, 2uM, 0 h, n3): 0.9597 Fold | Wound area (Fold) (A875 shp75, 2uM, 3 h, Mean): 0.910 Fold | Wound area (Fold) (A875 shp75, 2uM, 3 h, n1): 0.9076 Fold | Wound area (Fold) (A875 shp75, 2uM, 3 h, n2): 0.9176 Fold | Wound area (Fold) (A875 shp75, 2uM, 3 h, n3): 0.9063 Fold | Wound area (Fold) (A875 shp75, 2uM, 6 h, Mean): 0.853 Fold | Wound area (Fold) (A875 shp75, 2uM, 6 h, n1): 0.8581 Fold | Wound area (Fold) (A875 shp75, 2uM, 6 h, n2): 0.8655 Fold | Wound area (Fold) (A875 shp75, 2uM, 6 h, n3): 0.836 Fold | Wound area (Fold) (A875 shp75, 2uM, 9 h, Mean): 0.814 Fold | Wound area (Fold) (A875 shp75, 2uM, 9 h, n1): 0.821 Fold | Wound area (Fold) (A875 shp75, 2uM, 9 h, n2): 0.8359 Fold | Wound area (Fold) (A875 shp75, 2uM, 9 h, n3): 0.7843 Fold | Wound area (Fold) (A875 shp75, 2uM, 12 h, Mean): 0.777 Fold | Wound area (Fold) (A875 shp75, 2uM, 12 h, n1): 0.789 Fold | Wound area (Fold) (A875 shp75, 2uM, 12 h, n2): 0.7939 Fold | Wound area (Fold) (A875 shp75, 2uM, 12 h, n3): 0.7491 Fold | Wound area (Fold) (A875 shp75, 2uM, 15 h, Mean): 0.752 Fold | Wound area (Fold) (A875 shp75, 2uM, 15 h, n1): 0.7699 Fold | Wound area (Fold) (A875 shp75, 2uM, 15 h, n2): 0.7822 Fold | Wound area (Fold) (A875 shp75, 2uM, 15 h, n3): 0.7049 Fold | Wound area (Fold) (A875 shp75, 2uM, 18 h, Mean): 0.727 Fold | Wound area (Fold) (A875 shp75, 2uM, 18 h, n1): 0.7451 Fold | Wound area (Fold) (A875 shp75, 2uM, 18 h, n2): 0.762 Fold | Wound area (Fold) (A875 shp75, 2uM, 18 h, n3): 0.6733 Fold | Wound area (Fold) (A875 shp75, 2uM, 21 h, Mean): 0.692 Fold | Wound area (Fold) (A875 shp75, 2uM, 21 h, n1): 0.7162 Fold | Wound area (Fold) (A875 shp75, 2uM, 21 h, n2): 0.7095 Fold | Wound area (Fold) (A875 shp75, 2uM, 21 h, n3): 0.6489 Fold | Wound area (Fold) (A875 shp75, 2uM, 24 h, Mean): 0.665 Fold | Wound area (Fold) (A875 shp75, 2uM, 24 h, n1): 0.7012 Fold | Wound area (Fold) (A875 shp75, 2uM, 24 h, n2): 0.6688 Fold | Wound area (Fold) (A875 shp75, 2uM, 24 h, n3): 0.6256 Fold

— paper PMC12514245, “Impaired migration and lung invasion of human melanoma by a novel small molecule targeting the transmembrane domain of death receptor p75^NTR” (EMBO Molecular Medicine, 2025)
